According to publication PMC3139784 (Bioorganic & medicinal chemistry, 2011):

Key:
[1] = test system: U373MG cells expressing hiCE; assay: Growth inhibition assay with inhibitors and CPT-11; assay type: cell-based; settings: U373MGhiCE cells
[2] = target: hBChE (Homo sapiens, UniProt P06276); assay: Inhibition of butyrylcholinesterase; assay type: biochemical
[3] = test system: mammalian CEs (hCE1, hiCE, rCE); assay: CE inhibition across mammalian CEs; assay type: biochemical; settings: hCE1, hiCE or rCE, o-NPA substrate
[4] = target: hAChE (Homo sapiens, UniProt P22303); assay: Inhibition of acetylcholinesterase; assay type: biochemical
Sequence of hAChE (P22303 32-614): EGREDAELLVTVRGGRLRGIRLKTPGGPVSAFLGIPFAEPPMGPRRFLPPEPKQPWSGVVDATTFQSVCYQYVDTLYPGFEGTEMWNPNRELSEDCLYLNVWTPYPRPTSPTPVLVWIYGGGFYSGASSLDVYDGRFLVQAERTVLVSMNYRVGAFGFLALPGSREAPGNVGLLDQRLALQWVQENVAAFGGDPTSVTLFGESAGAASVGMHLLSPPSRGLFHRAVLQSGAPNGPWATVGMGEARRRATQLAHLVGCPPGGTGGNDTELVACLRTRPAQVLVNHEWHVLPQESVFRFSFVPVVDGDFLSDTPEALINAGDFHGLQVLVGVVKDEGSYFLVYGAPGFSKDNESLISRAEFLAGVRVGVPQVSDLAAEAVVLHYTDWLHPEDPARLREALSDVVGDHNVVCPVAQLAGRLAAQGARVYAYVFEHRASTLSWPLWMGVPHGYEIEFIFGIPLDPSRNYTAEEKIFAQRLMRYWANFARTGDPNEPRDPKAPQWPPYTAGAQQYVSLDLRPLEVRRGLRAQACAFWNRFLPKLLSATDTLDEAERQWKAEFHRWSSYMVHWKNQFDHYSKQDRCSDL

[5] = test system: CE; assay: Ability of compounds to act as CE substrates; assay type: biochemical; settings: 200 μM compound, 50 mM Hepes pH 7.4, data not shown
[6] = Spontaneous hydrolysis in buffered aqueous solution; assay type: physicochemical; settings: within 5 mins of addition to buffered aqueous (pH 7.4) solution

Sequence of hBChE (P06276 29-602): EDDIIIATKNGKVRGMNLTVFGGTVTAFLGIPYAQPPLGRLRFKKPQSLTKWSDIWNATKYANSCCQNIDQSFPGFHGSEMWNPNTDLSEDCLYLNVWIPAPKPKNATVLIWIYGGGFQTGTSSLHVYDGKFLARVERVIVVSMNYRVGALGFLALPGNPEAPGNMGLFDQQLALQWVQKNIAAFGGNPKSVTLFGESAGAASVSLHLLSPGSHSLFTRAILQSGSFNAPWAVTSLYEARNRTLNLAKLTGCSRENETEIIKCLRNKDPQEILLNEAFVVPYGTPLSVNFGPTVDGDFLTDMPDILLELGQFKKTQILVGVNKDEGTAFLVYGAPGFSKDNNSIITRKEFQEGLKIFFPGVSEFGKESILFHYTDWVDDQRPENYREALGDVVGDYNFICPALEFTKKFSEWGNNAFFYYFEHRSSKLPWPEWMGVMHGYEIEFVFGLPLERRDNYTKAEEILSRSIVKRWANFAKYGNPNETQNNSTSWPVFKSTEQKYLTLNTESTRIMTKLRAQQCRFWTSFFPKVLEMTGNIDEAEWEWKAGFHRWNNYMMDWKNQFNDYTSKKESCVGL

Structure (SMILES)	CE inhibition (in words) [3]	Hydrolysis on addition of CE (in words) [5]	Compound hydrolyzed spontaneously [6]	other results
O=C(C(=O)c1ccccc1)c1ccccc1 [Compound 1, Benzil, reference compound]	–	–	–	Reduction of toxicity of CPT-11 ([1]; versus CPT-11 alone): ~ 6 fold
O=C(Nc1ccccc1)C(=O)Nc1ccccc1 [Compound 2, Oxanilide]	not an inhibitor	–	–	Activity towards hBChE (in words) [2]: lacked activity; Activity towards hAChE (in words) [4]: lacked activity
O=C(Sc1ccccc1)C(=O)Sc1ccccc1 [Compound 3, S^1, S^2-Diphenyl ethane bis(thioate)]	ineffective at enzyme inhibition	not enhanced	greater than 40%	–
O=C(Oc1ccccc1)C(=O)Oc1ccccc1 [Compound 4, Diphenyl ethanedioate]	ineffective at enzyme inhibition	not enhanced	greater than 40%	–
CCCCCCC(=O)C(=O)CCCCCC [Compound 13, Tetradecane-7,8-dione]	–	–	–	Modulation of CPT-11 cytotoxicity (in words) ([1]; 10 μM inhibitor): ineffective
